One assay addresses human κ opioid receptor (Homo sapiens, UniProt P41145). Briefly: κ-opioid receptor [35S]GTPγS functional assay, U-2 OS cells. The following applies: for Emax: U2-OS cells, relative to U69,593. The assay is classed as biochemical. More on the design: expressed in transfected cells; host or cells: U-2 OS cells (in-house membranes). As for the experimental part:
Membranes from recombinant HEK-293 cells, CHO or U-2 OS cells expressing the recombinant human K opioid receptor (K) were prepared by lysing cells in ice cold hypotonic buffer (2.5 mM MgCl2, 50 mM HEPES, pH 7.4) (10 mL/10 cm dish) followed by homogenization with a tissue grinder/Teflon pestle. Functional [^35S]GTPγS binding assays were conducted as follows. K opioid receptor membrane solution was prepared by sequentially adding final concentrations of 0.026 μg/μl κ membrane protein (in-house), 10 μg/mL saponin, 3 μM GDP and 0.20 nM [^35S]GTPγS to binding buffer (100 mM NaCl, 10 mM MgCl2, 20 mM HEPES, pH 7.4) on ice. The prepared membrane solution (190 μl/well) was transferred to 96-shallow well polypropylene plates containing 10 μl of 20× concentrated stock solutions of agonist prepared in DMSO. Plates were incubated for 30 min at a temperature of about 25° C. with shaking. Reactions were terminated by rapid filtration onto 96-well Unifilter GF/B filter plates (Perkin Elmer, Shelton, Conn.) using a 96-well tissue harvester (Packard) and followed by three filtration washes with 200 μl ice-cold binding buffer (10 mM NaH2PO4, 10 mM Na2HPO4, pH 7.4). Filter plates were subsequently dried at 50° C. for 2-3 hours. Fifty μl/well scintillation cocktail (Perkin Elmer, Shelton, Conn.) was added and plates were counted in a Packard Top-Count for 1 min/well.
κ GTP EC50 is the concentration of a compound providing 50% of the maximal response for the compound at a κ receptor.
κ GTP Emax (%) is the maximal effect elicited by a compound relative to the effect elicited by U69,593.
(§1) In TABLE 2A, activity response of certain Compounds of the Invention at the μ- and κ-opioid receptors using U-2 OS cells was determined as described above for functional assays.
A general note: GTPγS is a poorly hydrolysed GTP analogue; its binding reports G protein activation.

The target in the next assay is μ-opioid receptor (Homo sapiens, UniProt P35372). Briefly: μ-opioid receptor [35S]GTPγS functional assay, U-2 OS cells. The assay is classed as biochemical. More on the design: host or cells: U-2 OS cells. The following applies: for Emax: U2-OS cells, relative to DAMGO. As for the experimental part:
[^35S]GTPγS functional assays were conducted using freshly thawed μ-receptor membranes prepared in-house from a cell line expressing recombinant opioid receptor in a HEK-293, CHO or U-2 OS cell background, or purchased from a commercial source (Perkin Elmer, Shelton, Conn.; or DiscovRx, Fremont, Calif.). Assay reactions were prepared by sequentially adding the following reagents to binding buffer (100 mM NaCl, 10 mM MgCl2, 20 mM HEPES, pH 7.4) on ice (final concentrations indicated): membrane protein (0.026 mg/mL), saponin ([…]), GDP ([…]) and [^35S]GTPγS (0.20 nM; Perkin Elmer, Shelton, Conn.). The prepared membrane solution (190 l/well) was transferred to 96-shallow well polypropylene plates containing 10 μl of 20× concentrated stock solutions of the agonist [D-Ala^2, N-methyl-Phe^4 Gly-ol^5]-enkephalin (DAMGO) prepared in dimethyl sulfoxide (DMSO). Plates were incubated for 30 min at about 25° C. with shaking. Reactions were terminated by rapid filtration onto 96-well Unifilter GF/B filter plates (Perkin Elmer, Shelton, Conn.) using a 96-well tissue harvester (Perkin Elmer, Shelton, Conn.) followed by three filtration washes with 200 μl of ice-cold wash buffer (10 mM NaH2PO4, 10 mM Na2HPO4, pH 7.4). Filter plates were subsequently dried at 50° C. for 2-3 hr. BetaScint scintillation cocktail (Perkin Elmer, Shelton, Conn.) was added (50 μl/well) and plates were counted using a Packard Top-Count for 1 min/well. Data were analyzed using the sigmoidal dose-response curve fitting functions in GraphPad PRISM v. 3.0, or an in-house function for non-linear, sigmoidal dose-response curve-fitting.
μ GTP EC50 is the concentration of a compound providing 50% of the maximal response for the compound at a μ-opioid receptor.
μ GTP Emax (%) is the maximal effect elicited by a compound relative to the effect elicited by DAMGO, a standard agonist. Generally, the μ GTP Emax (%) value measures the efficacy of a compound to treat or prevent pain or other Conditions.
as §1

SMILES strings stand for the structures. Where only a bound is given, the exact number is not on record here.

Here are results for eight molecules from patent US20200148646A1, “6-S[…] 7-S[…] ANALOGS AND THE USE THEREOF” (Purdue Pharma, L.P., priority 2013, published 2020).

μ-opioid receptor, sequence (P35372 whole entry, species assumed): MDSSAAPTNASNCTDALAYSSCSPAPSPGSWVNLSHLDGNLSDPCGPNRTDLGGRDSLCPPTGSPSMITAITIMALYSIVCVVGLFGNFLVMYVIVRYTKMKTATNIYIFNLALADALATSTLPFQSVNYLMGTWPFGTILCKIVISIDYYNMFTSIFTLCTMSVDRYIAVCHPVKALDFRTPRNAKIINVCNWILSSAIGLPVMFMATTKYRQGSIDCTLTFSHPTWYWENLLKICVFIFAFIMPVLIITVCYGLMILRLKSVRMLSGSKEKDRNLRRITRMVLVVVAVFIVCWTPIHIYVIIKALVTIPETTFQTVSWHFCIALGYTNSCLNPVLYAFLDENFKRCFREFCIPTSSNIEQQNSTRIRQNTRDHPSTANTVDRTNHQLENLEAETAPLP
human κ opioid receptor, sequence (P41145 whole entry): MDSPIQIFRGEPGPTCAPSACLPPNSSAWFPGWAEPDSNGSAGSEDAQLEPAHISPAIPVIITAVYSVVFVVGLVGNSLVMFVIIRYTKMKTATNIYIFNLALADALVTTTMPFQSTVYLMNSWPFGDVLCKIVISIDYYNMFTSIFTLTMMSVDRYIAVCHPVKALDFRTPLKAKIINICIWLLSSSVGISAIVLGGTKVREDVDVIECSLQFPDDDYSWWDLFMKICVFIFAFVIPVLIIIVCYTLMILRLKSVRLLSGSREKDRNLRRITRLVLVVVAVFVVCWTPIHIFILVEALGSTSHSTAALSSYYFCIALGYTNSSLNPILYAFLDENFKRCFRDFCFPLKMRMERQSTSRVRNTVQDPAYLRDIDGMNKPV

For `COc1ccc2c(c1)[C@@]13CCC(=O)C[C@@]1(O)[C@@H](C2)N(CC1CC1)CC3` [Compound 31, (4bS,8aS,9R)-11-(cyclopropylmethyl)-8a-hydroxy-3-methoxy-5,6,8,8a,9,10-hexahydro-7H-9,4b-(epiminoethano)phenanthren-7-one], on human κ opioid receptor, the EC50 is 633 ± 87.1 nM and the Emax turned out to be 108 ± 3.76%. At μ-opioid receptor, the EC50 was 740 ± 49.5 nM and the Emax came to 57.3 ± 2.73%.
For `N=C(N)NCCN[C@H]1CC[C@]23CCN(CC4CC4)[C@H](Cc4ccc(O)cc42)[C@]3(O)C1` [Compound 32, 1-(2-(((4bS,7S,8aS,9R)-11-(cyclopropylmethyl)-3,8a-dihydroxy-6,7,8,8a,9,10-hexahydro-5H-9,4b-(epiminoethano)phenanthren-7-yl)amino)ethyl)guanidine] the same measures were more than 20000 nM, -1%, more than 20000 nM and 5.33 ± 1.45%.
For `COc1ccc2c(c1)[C@]13CCN(CC4CC4)[C@H](C2)[C@]1(O)C[C@@H](NCC(C)C)[C@@H](O)C3` [Compound 33, (4bR,6S,7R,8aS,9R)-11-(cyclopropylmethyl)-7-(isobutylamino)-3-methoxy-5,6,7,8,9,10-hexahydro-8aH-9,4b-(epiminoethano)phenanthrene-6,8a-diol] the same measures were 328 ± 22.1 nM, 93.7 ± 1.76%, 503 ± 43.5 nM and 43 ± 3.79%.
For `CN[C@@H]1C[C@@]2(O)[C@H]3Cc4ccc(O)cc4[C@@]2(CCN3CC2CC2)C[C@@H]1O` [Compound 35, (4bR,6S,7R,8aS,9R)-11-(cyclopropylmethyl)-7-(methylamino)-5,6,7,8,9,10-hexahydro-8aH-9,4b-(epiminoethano)phenanthrene-3,6,8a-triol] the same measures were 0.2 ± 0.042 nM, 97.3 ± 2.85%, 2.55 ± 0.33 nM and 25.7 ± 0.88%.
As to `Oc1ccc2c(c1)[C@]13CCN(CC4CC4)[C@H](C2)[C@]1(O)C[C@@H](NCc1ccccc1)[C@@H](O)C3` [Compound 36, (4bR,6S,7R,8aS,9R)-7-(benzylamino)-11-(cyclopropylmethyl)-5,6,7,8,9,10-hexahydro-8aH-9,4b-(epiminoethano)phenanthrene-3,6,8a-triol], the EC50 on human κ opioid receptor is 0.34 ± 0.033 nM; on μ-opioid receptor, 2.36 ± 0.64 nM. Besides, the Emax at human κ opioid receptor is 62 ± 3.06%; at μ-opioid receptor, 24.3 ± 0.88%.
For `Oc1ccc2c(c1)[C@]13CCN(CC4CC4)[C@H](C2)[C@]1(O)C[C@@H](NCc1ccccc1)[C@H](O)C3` [Compound 37, (4bR,6R,7R,8aS,9R)-7-(benzylamino)-11-(cyclopropylmethyl)-5,6,7,8,9,10-hexahydro-8aH-9,4b-(epiminoethano)phenanthrene-3,6,8a-triol] the same measures were 0.5 ± 0.039 nM, 3.35 ± 0.41 nM, 87.7 ± 2.19% and 24.3 ± 0.88%.
For `Oc1ccc2c(c1)[C@]13CCN(CC4CC4)[C@H](C2)[C@]1(O)C[C@@H](N1CCCC1)[C@@H](O)C3` [Compound 38, (4bR,6S,7R,8aS,9R)-11-(cyclopropylmethyl)-7-(pyrrolidin-1-yl)-5,6,7,8,9,10-hexahydro-8aH-9,4b-(epiminoethano)phenanthrene-3,6,8a-triol] the same measures were 0.33 ± 0.022 nM, 1.27 ± 0.19 nM, 80 ± 3.79% and 23.3 ± 1.86%.
For `Oc1ccc2c(c1)[C@]13CCN(CC4CC4)[C@H](C2)[C@]1(O)C[C@@H](N1CCOCC1)[C@@H](O)C3` [Compound 39, (4bR,6S,7R,8aS,9R)-11-(cyclopropylmethyl)-7-morpholino-5,6,7,8,9,10-hexahydro-8aH-9,4b-(epiminoethano)phenanthrene-3,6,8a-triol] the same measures were more than 20000 nM, more than 20000 nM, 1% and 2%.

As a reminder, the EC50 is the midpoint of the concentration-response curve. A high value points to weaker potency. In general, Emax refers to the maximal effect, on the per cent scale that the assay sets.
